Test results reported in PMC11089506 (Journal of Medicinal Chemistry, 2024).
Counter-ions that a name gives are not always drawn.

Tests used:
5-HT5a = biological target: T1, 5-HT5a (Homo sapiens, UniProt P47898); assay: radioligand competition binding, [3H]LSD; details: read-out: % inhibition of the specific radioligand binding
T1 construct: Eurofins

5-HT6 = biological target: T2, 5-HT6 (Homo sapiens, UniProt P50406); assay: radioligand competition binding, [3H]LSD
T2 construct: Eurofins

[1] = biological target: T3, D3 (dopaminergic receptor) (Homo sapiens, UniProt P35462); assay: radioligand competition binding, [3H]methyl-spiperone; details: read-out: % inhibition of the specific radioligand binding
T3 construct: Eurofins

[2] = biological target: T4, D5 (dopaminergic receptor) (Homo sapiens, UniProt P21918); assay: radioligand competition binding, [3H]SCH 23390; details: read-out: % inhibition of the specific radioligand binding
T4 construct: Eurofins

[3] = biological target: T5, H1 (histaminergic receptor) (Homo sapiens, UniProt P35367); assay: radioligand competition binding, [3H]pyrilamine
T5 construct: Eurofins

M1 (muscarinic receptor) = biological target: T6, M1 (muscarinic receptor) (Homo sapiens, UniProt P11229); assay: radioligand competition binding, [3H]pirenzepine
T6 construct: Eurofins
T6 sequence (P11229 1-460): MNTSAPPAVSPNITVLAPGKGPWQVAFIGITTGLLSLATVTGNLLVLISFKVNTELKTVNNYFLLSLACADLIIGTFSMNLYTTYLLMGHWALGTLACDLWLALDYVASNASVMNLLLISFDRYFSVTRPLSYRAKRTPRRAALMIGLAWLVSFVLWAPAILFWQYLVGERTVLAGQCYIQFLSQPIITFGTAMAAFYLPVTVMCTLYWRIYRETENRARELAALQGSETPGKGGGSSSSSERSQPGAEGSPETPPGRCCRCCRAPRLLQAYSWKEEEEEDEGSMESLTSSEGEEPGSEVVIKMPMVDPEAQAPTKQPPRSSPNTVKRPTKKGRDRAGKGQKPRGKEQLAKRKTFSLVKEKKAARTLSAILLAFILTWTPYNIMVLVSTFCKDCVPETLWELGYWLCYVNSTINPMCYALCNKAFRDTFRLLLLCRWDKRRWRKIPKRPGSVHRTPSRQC

Adenosine receptor A2A = biological target: T7, Adenosine receptor A2A (Homo sapiens, UniProt P29274); assay: radioligand competition binding, [3H]CGS-21680
T7 construct: Eurofins

GABAA receptor (GABA) = assay: radioligand competition binding, [3H]Muscimol; design: species or system rat
GABAA receptor (benzod.) = assay: radioligand competition binding, [3H]Flunitrazepam; design: species or system rat
Imidazoline receptor I2 = assay: radioligand competition binding, [3H]Idazoxan; design: species or system rat
[4] = biological target: T8, Leukotriene receptor CysLT1 (Homo sapiens, UniProt Q9Y271); assay: radioligand competition binding, [125I]LTD4
T8 construct: Eurofins

Melatonin receptor MT1 = biological target: T9, Melatonin receptor MT1 (Homo sapiens, UniProt P48039); assay: radioligand competition binding, [125I]2-Iodomelatonin
T9 construct: Eurofins

[5] = biological target: T10, Nicotinic acetylcholine receptor (muscle-type) (Homo sapiens, UniProt P02708+P07510+Q07001); assay: radioligand competition binding, [125I]α-Bungarotoxin
T10 construct: Eurofins

Opioid receptor μ = biological target: T11, Opioid receptor μ (Homo sapiens, UniProt P35372); assay: radioligand competition binding, [3H]Diprenorphine (second line)
T11 construct: Eurofins

Purinergic receptor P2X = assay: radioligand competition binding, [3H]α,β-Methylene-ATP; design: species or system rat
GABA transporter = GABA transporter (Rattus norvegicus, UniProt P23978); assay: biochemical; details: read-out: % inhibition of the specific radioligand binding
human 5-HT2CR = human 5-HT2CR (Homo sapiens, UniProt P28335); assay: Ca2+/Fluo-4 assay, antagonist mode (5-HT EC90 as agonist), stable 5-HT2CR-HEK293 cells; details: 5-HT2CR pIC50 ± S.E.M., Table S2
[6] = estimated from the % inhibition data
[7] = read-out: % inhibition of the specific radioligand binding

COc1cc(C(F)(F)F)c(OC)cc1[C@@H]1CCCNC1 [(S)-11, 3-(2,5-Dimethoxy-4-(trifluoromethyl)phenyl)piperidine Hydrochloride]
inhibition at 10 µM (5-HT5a): 4%
IC50 (5-HT6; [6]): 1 to 10 µM
inhibition at 1 µM (5-HT6; [7]): 24%
inhibition at 10 µM (5-HT6; [7]): 77%
inhibition at 10 µM [1]: 40%
inhibition at 10 µM [2]: 26%
IC50 [3, 6]: 1 to 10 µM
inhibition at 1 µM [3, 7]: 19%
inhibition at 10 µM [3, 7]: 64%
IC50 (M1 (muscarinic receptor); [6]): ~1 µM
inhibition at 1 µM (M1 (muscarinic receptor); [7]): 51%
inhibition at 10 µM (M1 (muscarinic receptor); [7]): 90%
IC50 (Adenosine receptor A2A; [6]): > 10 µM
inhibition at 10 µM (Adenosine receptor A2A; [7]): -19%
% inhibition of the specific radioligand binding (GABAA receptor (GABA); (S)-11 10 μM, n=1): 1%
IC50 (GABAA receptor (GABA); [6]): > 10 µM
% inhibition of the specific radioligand binding (GABAA receptor (benzod.); (S)-11 10 μM, n=1): -14%
IC50 (GABAA receptor (benzod.); [6]): > 10 µM
% inhibition of the specific radioligand binding (Imidazoline receptor I2; (S)-11 10 μM, n=1): 17%
IC50 (Imidazoline receptor I2; [6]): > 10 µM
IC50 [4, 6]: > 10 µM
inhibition at 10 µM [4, 7]: -7%
IC50 (Melatonin receptor MT1; [6]): > 10 µM
inhibition at 10 µM (Melatonin receptor MT1; [7]): 7%
IC50 [5]: > 10 µM
inhibition at 10 µM [5, 7]: 3%
IC50 (Opioid receptor μ; [6]): > 10 µM
inhibition at 10 µM (Opioid receptor μ; [7]): 18%
% inhibition of the specific radioligand binding (Purinergic receptor P2X; (S)-11 10 μM, n=1): -30%
IC50 (Purinergic receptor P2X; [6]): > 10 µM
inhibition at 10 µM (GABA transporter): 29%
IC50 (human 5-HT2CR): 0.316 µM
